Results as given in patent US20130245064A1, “NOVEL NEUROTRYPSIN INHIBITORS” (priority 2010, published 2013).
pIC50: −log10 of the molar value.

Tests used:
human neurotrypsin = biological target: T1, human neurotrypsin (Homo sapiens, UniProt P56730); experiment: Determination of IC50 for human neurotrypsin; type: biochemical; details: table of all 14 examples; read-out: Neurotrypsin IC50
T1 sequence (P56730 21-875): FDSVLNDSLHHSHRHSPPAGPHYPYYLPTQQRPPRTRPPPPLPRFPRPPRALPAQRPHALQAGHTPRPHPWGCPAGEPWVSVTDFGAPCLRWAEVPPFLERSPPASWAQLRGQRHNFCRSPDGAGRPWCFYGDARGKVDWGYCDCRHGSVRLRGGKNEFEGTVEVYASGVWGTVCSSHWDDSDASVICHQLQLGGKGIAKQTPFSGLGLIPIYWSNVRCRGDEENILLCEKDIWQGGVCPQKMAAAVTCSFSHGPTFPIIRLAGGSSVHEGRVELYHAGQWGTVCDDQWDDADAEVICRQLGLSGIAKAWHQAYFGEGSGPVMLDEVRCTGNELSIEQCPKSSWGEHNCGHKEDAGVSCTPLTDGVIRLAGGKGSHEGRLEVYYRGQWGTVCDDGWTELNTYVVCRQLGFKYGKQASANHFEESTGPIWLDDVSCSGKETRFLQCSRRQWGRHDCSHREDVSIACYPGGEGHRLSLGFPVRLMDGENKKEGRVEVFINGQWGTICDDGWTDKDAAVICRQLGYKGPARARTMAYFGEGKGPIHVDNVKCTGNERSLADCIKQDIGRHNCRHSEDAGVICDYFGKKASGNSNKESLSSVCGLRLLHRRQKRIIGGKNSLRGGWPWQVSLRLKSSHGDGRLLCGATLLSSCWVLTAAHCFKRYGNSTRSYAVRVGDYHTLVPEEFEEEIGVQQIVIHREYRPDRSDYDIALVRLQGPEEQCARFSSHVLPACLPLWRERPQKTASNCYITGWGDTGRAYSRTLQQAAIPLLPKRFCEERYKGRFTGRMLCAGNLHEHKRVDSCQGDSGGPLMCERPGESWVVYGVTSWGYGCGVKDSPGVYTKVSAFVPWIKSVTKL
Experimental: Determination of IC50 for Human Neurotrypsin
Assessment of the potency of compounds of examples 1-14 in inhibiting the enzymatic activity of human neurotrypsin was performed according to the method described in patent application […]

| Compound | pIC50 (human neurotrypsin) | melting point |
| --- | --- | --- |
| 1-(2-Hydroxy-4-(5,6-dichloro-1H-benzo[d]imidazol-2-yl)-benzoyl)-4-benzylpiperidine [Example 10] | 4.74 | – |
| 1-(2-Hydroxy-4-(5,6-dichloro-1H-benzo[d]imidazol-2-yl)-benzoyl)-4-phenoxypiperidine [Example 12] | 5.82 | – |
| O=C(Nc1ccccc1F)c1ccc(NC(=O)c2[nH]c3ccc(Cl)cc3c2-c2ccccc2)cc1O [Example 2, N-(2-Fluorophenyl)-4-(5-chloro-3-phenyl-indole-2-carbonyl)amino-2-hydroxybenzamide] | 4.48 | > 220 °C |
| O=C(Nc1ccc(C(=O)Nc2ccc(Cl)cc2)c(O)c1)c1ccc(-c2ccc(F)cc2)cc1 [Example 3] | 5.12 | > 220 °C |
| O=C(Nc1ccc(Cl)cc1)c1ccc(NC(=O)c2sc3ccccc3c2Cl)cc1O [Example 4, N-(4-Chlorophenyl)-4-[(3-chlorobenzo[b]-thiophene-2-carbonyl)amino]-2-hydroxybenzamide] | 4.26 | > 220 °C |
| O=C(Nc1ccc(C(=O)Nc2ccc(Cl)cc2)c(O)c1)c1ccc(Oc2ccc(Cl)c(Cl)c2)cc1 [Example 5] | 4.86 | > 220 °C |
| O=C(Nc1ccc(C(=O)Nc2ccc(Cl)cc2)c(O)c1)c1ccc(-c2ccc(F)cc2)s1 [Example 6] | 5.47 | > 220 °C |
| O=C(Nc1ccc(C(=O)Nc2ccc(Cl)cc2)c(O)c1)c1ccc2cc(Cl)c(Cl)cc2n1 [Example 7, N-(4-Chlorophenyl)-4-(6,7-dichloroquinoline-2-carbonyl)amino-2-hydroxybenzamide] | 4.57 | > 220 °C |
| O=C(Nc1ccc(Cl)cc1)c1ccc(NC(=O)c2[nH]c3ccc(Cl)cc3c2-c2ccccc2)cc1O [Example 8, N-(4-Chlorophenyl)-4-(5-chloro-3-phenylindole-2-carbonyl)amino-2-hydroxybenzamide] | 4.97 | > 220 °C |
| O=C(Nc1ccc(C(=O)Nc2ccc(Cl)cc2F)c(O)c1)c1ccc(-c2nc3cc(Cl)c(Cl)cc3[nH]2)cc1 [Example 9, N-(2-Fluoro-4-chloro-phenyl)-4-(4-(5,6-di-chloro-1H-benzo[d]imidazol-2-yl)-benzamido)-2-hydroxybenzamide] | 5.72 | > 220 °C |
| O=C(Nc1ccc(C(=O)Nc2ccc(F)cc2F)c(O)c1)c1ccc(-c2nc3cc(Cl)c(Cl)cc3[nH]2)cc1 [Example 11, N-(2,4-Difluorophenyl)-4-(4-(5,6-dichloro-1H-benzo[d]imidazol-2-yl)-benzamido)-2-hydroxybenzamide] | 5.96 | > 220 °C |
| CC(C)CN(CC(C)C)C(=O)c1ccc(NC(=O)c2ccc(-c3nc4cc(Cl)c(Cl)cc4[nH]3)cc2)cc1O [Example 13, N,N-Diisobutyl-2-hydroxy-4-((5,6-dichloro-1H-benzo[d]imidazol-2-yl)-benzamido)benzamide] | 4.26 | – |
| CCCCc1ccc(NC(=O)c2ccc(NC(=O)c3ccc(-c4nc5cc(Cl)c(Cl)cc5[nH]4)cc3)cc2O)cc1 [Example 14, N-(4-Butylphenyl)-4-(4-(5,6-dichloro-1H-benzo[d]imidazol-2-yl)-benzamido)-2-hydroxybenzamide] | 5.77 | > 220 °C |
